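At the GI50, growth is halved. TGI: total growth inhibition.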
What was measured:
Experiment in all cases: growth of human tumour cells (NCI), 384-well format
MOLT-4 leukemia = tested on: MOLT-4 leukemia
NCI/ADR-RES ovarian = tested on: NCI/ADR-RES ovarian
BT-549 breast = tested on: BT-549 breast
K-562 leukemia = tested on: K-562 leukemia
786-0 renal = tested on: 786-0 renal
PC-3 prostate = tested on: PC-3 prostate
T-47D breast = tested on: T-47D breast
MCF7 breast = tested on: MCF7 breast
SNB-75 CNS = tested on: SNB-75 CNS
HS 578T breast = tested on: HS 578T breast
NCI-H460 NSCLC = tested on: NCI-H460 NSCLC
NCI-H226 lung = tested on: NCI-H226 lung
SF-268 CNS = tested on: SF-268 CNS

## C1=C/COCc2cc(ccc2OCCN2CCCC2)Nc2nccc(n2)-c2cccc(c2)COC/1
MOLT-4 leukemia
  GI50: 563 nM
  TGI: 1290 nM
NCI/ADR-RES ovarian
  GI50: 1910 nM
  TGI: 3990 nM
BT-549 breast
  GI50: 1790 nM
  TGI: 3200 nM
K-562 leukemia
  GI50: 789 nM
  TGI: 2140 nM
786-0 renal
  GI50: 1260 nM
  TGI: 2620 nM
PC-3 prostate
  GI50: 1270 nM
  TGI: 3250 nM
T-47D breast
  GI50: 1270 nM
  TGI: 2670 nM
MCF7 breast
  GI50: 521 nM
  TGI: 1780 nM
SNB-75 CNS
  GI50: 1610 nM
  TGI: 2980 nM
HS 578T breast
  GI50: 1360 nM
  TGI: 2670 nM
NCI-H460 NSCLC
  GI50: 923 nM
  TGI: 2220 nM
NCI-H226 lung
  GI50: 1140 nM
  TGI: 2600 nM
SF-268 CNS
  GI50: 865 nM
  TGI: 2100 nM

— PubChem BioAssay (NCI)
